Experimental findings from PMC5931475, “Deciphering the molecular determinants of cholinergic anthelmintic sensitivity in nematodes: When novel functional validation approaches highlight major differences between the model Caenorhabditis elegans and parasitic species” (PLoS Pathogens, 2018) are described below.

In experiment [1] the target is T1, composite Cel-L-AChR with Min-ACR-8 (29/38/63/L1 + Min-ACR-8).
T1 construct: mixed-species complex of whole subunits; cRNA in Xenopus laevis oocytes with C. elegans RIC-3, UNC-50, UNC-74; LEV-8 replaced by M. incognita ACR-8
As to the kind of experiment: two-electrode voltage clamp, Xenopus oocytes. The class given is cell-based, Caenorhabditis elegans; Meloidogyne incognita. Conditions: agonist; responses normalized to 100 μM ACh; read-out: Lev EC50.

Experiment [2] deals with composite Cel-L-AChR with Hco-UNC-38 (29/63/L1/L8 + Hco-UNC-38). More on the design: species or system Xenopus laevis oocytes. The note with it: Imax as % of 100 uM ACh response; agonist.
The target of experiment [3] is T2, composite Cel-L-AChR with Hco-ACR-8 (29/38/63/L1 + Hco-ACR-8).
T2 construct: mixed-species complex of whole subunits; cRNA in Xenopus laevis oocytes with C. elegans RIC-3, UNC-50, UNC-74; LEV-8 replaced by H. contortus ACR-8
Briefly: two-electrode voltage clamp, Xenopus oocytes. Conditions: read-out: Lev EC50; full agonist; responses normalized to 100 μM ACh. It counts as cell-based, Caenorhabditis elegans; Haemonchus contortus.

Experiment [4] concerns the target T3, composite Cel-L-AChR with Asu-ACR-8 (29/38/63/L1 + Asu-ACR-8).
T3 construct: mixed-species complex of whole subunits; cRNA in Xenopus laevis oocytes with C. elegans RIC-3, UNC-50, UNC-74; LEV-8 replaced by A. suum ACR-8
Briefly: two-electrode voltage clamp, Xenopus oocytes. It counts as cell-based, Caenorhabditis elegans; Ascaris suum. The note with it: read-out: Lev EC50; agonist; responses normalized to 100 μM ACh.

Experiment [5] addresses T4, Cel-L-AChR (29/38/63/L1 + Cel-LEV-8).
T4 construct: gene unc-38; full-length subunits from cRNA in Xenopus laevis oocytes with ancillary C. elegans RIC-3, UNC-50, UNC-74; heteropentamer
Briefly: two-electrode voltage clamp, Xenopus oocytes. Conditions: partial agonist; responses normalized to 100 μM ACh. The class given is cell-based, Caenorhabditis elegans.

In experiment [6] the target is T5, composite Cel-L-AChR with Ode-ACR-8 (29/38/63/L1 + Ode-ACR-8).
T5 construct: mixed-species complex of whole subunits; cRNA in Xenopus laevis oocytes with C. elegans RIC-3, UNC-50, UNC-74; LEV-8 replaced by O. dentatum ACR-8
Briefly: two-electrode voltage clamp, Xenopus oocytes. The class given is cell-based, Caenorhabditis elegans; Oesophagostomum dentatum. The note with it: read-out: Lev EC50; full agonist; responses normalized to 100 μM ACh.

In experiment [7] the target is T6, composite Cel-L-AChR with Hco-UNC-63 (29/38/L1/L8 + Hco-UNC-63).
T6 construct: mixed-species complex of whole subunits; cRNA in Xenopus laevis oocytes with ancillary RIC-3, UNC-50, UNC-74; Cel-UNC-63 replaced by H. contortus UNC-63
As to the kind of experiment: two-electrode voltage clamp, Xenopus oocytes. The class given is cell-based, Caenorhabditis elegans; Haemonchus contortus. Conditions: read-out: Lev EC50; agonist; responses normalized to 100 μM ACh.

In experiment [8] the test system is composite Cel-L-AChR with Ode-ACR-8 (29/38/63/L1 + Ode-ACR-8). More on the design: species or system Xenopus laevis oocytes. The note with it: Imax as % of 100 uM ACh response; agonist.
Experiment [9] has as its target T7, composite Cel-L-AChR with Hco-UNC-38 (29/63/L1/L8 + Hco-UNC-38).
T7 construct: mixed-species complex of whole subunits; cRNA in Xenopus laevis oocytes with ancillary RIC-3, UNC-50, UNC-74; Cel-UNC-38 replaced by H. contortus UNC-38
Briefly: two-electrode voltage clamp, Xenopus oocytes. It counts as cell-based, Caenorhabditis elegans; Haemonchus contortus. Conditions: read-out: Lev EC50; agonist; responses normalized to 100 μM ACh.

The subject of experiment [10] is composite Cel-L-AChR with Hco-ACR-8 (29/38/63/L1 + Hco-ACR-8). Set-up: species or system Xenopus laevis oocytes. The note with it: Imax as % of 100 uM ACh response; agonist.
Experiment [11] concerns T1, composite Cel-L-AChR with Min-ACR-8 (29/38/63/L1 + Min-ACR-8). Set-up: species or system Xenopus laevis oocytes; Agonist-evoked currents in cRNA-injected oocytes, concentration-response normalized to 100 uM ACh. The note with it: Imax as % of 100 uM ACh response; agonist. The text has this:
(§1) The C. elegans L-AChR can be robustly expressed in Xenopus oocytes by co-expressing cRNAs from the five L-AChR subunits (UNC-38, UNC-63, UNC-29, LEV-1 and LEV-8) in combination with cRNA encoding three ancillary proteins (UNC-74, UNC-50 and RIC-3). Noticeably, the absence of any one of these AChR subunits or ancillary proteins from the injected cRNA mix leads to the loss of expression of functional receptor highlighting their major individual requirement. Taking advantage of this, we complemented the Cel-L-AChR by replacing the Cel-LEV-8 by ACR-8 subunits from distinct parasitic nematode species. As a preliminary set of experiments, cRNAs encoding ACR-8 from parasitic nematodes were micro-injected with the three ancillary proteins in order to test their ability to form a homomeric channel. […] Therefore, cRNAs encoding Cel-UNC-38, Cel-UNC-63, Cel-UNC-29, Cel-LEV-1, Cel-UNC-74, Cel-UNC-50 and Cel-RIC-3 in combination with either Hco-ACR-8 / Ode-ACR-8 / Asu-ACR-8 / Dim-ACR-8 / Min-ACR-8 were co-injected into Xenopus oocytes. Three days after injection, each of these combinations produced robust responses to 100μM ACh in oocytes (S3 Fig). Similarly, application of 100μM levamisole (Lev) elicited a response for all complemented Cel-L-AChRs. Dose response curves were generated for both ACh and Lev in complemented L-AChRs containing ACR-8 subunits from parasitic species (Fig 2 and Table 1). In comparison to the C. elegans L-AChR, we observed a drastic reduction of the ACh EC50 values in the composite L-AChRs complemented with Hco-ACR-8, Ode-ACR-8, Asu-ACR-8 and Dim-ACR-8. […] A. Representation of the putative arrangement of the C. elegans L-AChR subunits expressed in Xenopus oocytes and dose-response relationships for ACh (red triangle, n = 8) and Lev (white circle, n = 8). B-F. Representation of the putative subunit arrangement of the composite C. elegans L-AChRs including Cel-UNC-29, Cel-UNC-38, Cel-UNC-63, Cel-LEV-1 and the ACR-8 subunit from a parasitic nematode species: H. contortus ACR-8 (B), O. dentatum ACR-8 (C), A. suum ACR-8 (D), D. immitis ACR-8 (E) and M. incognita ACR-8 (F). Dose-response relationships for ACh and Lev are indicated by red triangles (n = 5–11) and white circles (n = 4–9), respectively. G-H. Representation of the putative subunit arrangement of the composite C. elegans L-AChRs with Hco-UNC-38 replacing Cel-UNC-38 (G) or Hco-UNC-63 replacing Cel-UNC-63 (H). Dose-response relationships for ACh and Lev are indicated by red triangles (n = 7–10) and white circles (n = 7–9), respectively. All responses are normalized to 100μM ACh. Results are shown as the mean ± se. […]

The subject of experiment [12] is T3, composite Cel-L-AChR with Asu-ACR-8 (29/38/63/L1 + Asu-ACR-8). More on the design: species or system Xenopus laevis oocytes; Agonist-evoked currents in cRNA-injected oocytes, concentration-response normalized to 100 uM ACh. The note with it: Imax as % of 100 uM ACh response; agonist.
Source text: as §1

Experiment [13] deals with T4, Cel-L-AChR (29/38/63/L1 + Cel-LEV-8). Set-up: species or system Xenopus laevis oocytes; Agonist-evoked currents in cRNA-injected oocytes, concentration-response normalized to 100 uM ACh. The note with it: Imax as % of 100 uM ACh response; agonist.
Source text: as §1

The test system of experiment [14] is T6, composite Cel-L-AChR with Hco-UNC-63 (29/38/L1/L8 + Hco-UNC-63). Set-up: species or system Xenopus laevis oocytes; Agonist-evoked currents in cRNA-injected oocytes, concentration-response normalized to 100 uM ACh. The note with it: Imax as % of 100 uM ACh response; agonist.
Source text: as §1

T4 sequence (Q23022 17-511): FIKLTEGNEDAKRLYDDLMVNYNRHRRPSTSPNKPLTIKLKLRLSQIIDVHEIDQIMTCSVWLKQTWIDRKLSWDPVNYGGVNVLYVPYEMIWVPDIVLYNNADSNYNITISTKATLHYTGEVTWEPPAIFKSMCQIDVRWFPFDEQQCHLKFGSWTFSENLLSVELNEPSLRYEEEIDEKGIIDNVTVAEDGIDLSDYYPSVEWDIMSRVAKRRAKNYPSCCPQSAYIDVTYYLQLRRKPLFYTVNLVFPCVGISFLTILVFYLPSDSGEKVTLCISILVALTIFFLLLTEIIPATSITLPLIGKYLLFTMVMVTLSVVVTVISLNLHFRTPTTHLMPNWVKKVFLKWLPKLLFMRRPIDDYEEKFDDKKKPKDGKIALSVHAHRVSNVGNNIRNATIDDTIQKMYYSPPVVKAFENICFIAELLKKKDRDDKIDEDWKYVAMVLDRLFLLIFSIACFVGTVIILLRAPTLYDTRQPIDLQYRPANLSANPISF
T4 sequence (Q9N587 24-502, further chain): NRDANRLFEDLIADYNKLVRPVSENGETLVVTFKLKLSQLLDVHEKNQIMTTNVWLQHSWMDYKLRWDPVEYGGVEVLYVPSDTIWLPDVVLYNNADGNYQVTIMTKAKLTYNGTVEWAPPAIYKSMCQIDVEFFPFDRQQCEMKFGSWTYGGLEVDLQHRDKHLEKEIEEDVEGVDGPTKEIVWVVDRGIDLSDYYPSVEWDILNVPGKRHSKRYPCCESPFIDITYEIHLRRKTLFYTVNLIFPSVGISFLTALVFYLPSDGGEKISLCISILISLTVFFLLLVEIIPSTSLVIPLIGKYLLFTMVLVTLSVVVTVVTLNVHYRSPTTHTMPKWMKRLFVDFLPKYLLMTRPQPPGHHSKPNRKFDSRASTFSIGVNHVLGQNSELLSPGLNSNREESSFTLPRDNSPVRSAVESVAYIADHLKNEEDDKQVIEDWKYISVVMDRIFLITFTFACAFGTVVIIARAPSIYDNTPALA
T4 sequence (P48181 27-493, further chain): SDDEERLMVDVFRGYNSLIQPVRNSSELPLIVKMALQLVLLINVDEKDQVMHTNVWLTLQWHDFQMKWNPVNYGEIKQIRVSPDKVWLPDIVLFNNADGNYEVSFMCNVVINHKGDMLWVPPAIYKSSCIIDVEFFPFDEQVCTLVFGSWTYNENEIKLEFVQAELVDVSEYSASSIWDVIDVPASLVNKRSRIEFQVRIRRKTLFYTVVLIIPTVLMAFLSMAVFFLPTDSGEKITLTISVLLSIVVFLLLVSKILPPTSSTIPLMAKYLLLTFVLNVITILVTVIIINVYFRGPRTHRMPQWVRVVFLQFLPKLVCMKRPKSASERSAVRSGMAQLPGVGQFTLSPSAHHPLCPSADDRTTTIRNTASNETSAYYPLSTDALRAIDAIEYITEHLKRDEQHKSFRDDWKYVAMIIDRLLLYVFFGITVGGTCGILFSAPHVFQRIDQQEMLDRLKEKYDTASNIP
T4 sequence (Q27218 32-507, further chain): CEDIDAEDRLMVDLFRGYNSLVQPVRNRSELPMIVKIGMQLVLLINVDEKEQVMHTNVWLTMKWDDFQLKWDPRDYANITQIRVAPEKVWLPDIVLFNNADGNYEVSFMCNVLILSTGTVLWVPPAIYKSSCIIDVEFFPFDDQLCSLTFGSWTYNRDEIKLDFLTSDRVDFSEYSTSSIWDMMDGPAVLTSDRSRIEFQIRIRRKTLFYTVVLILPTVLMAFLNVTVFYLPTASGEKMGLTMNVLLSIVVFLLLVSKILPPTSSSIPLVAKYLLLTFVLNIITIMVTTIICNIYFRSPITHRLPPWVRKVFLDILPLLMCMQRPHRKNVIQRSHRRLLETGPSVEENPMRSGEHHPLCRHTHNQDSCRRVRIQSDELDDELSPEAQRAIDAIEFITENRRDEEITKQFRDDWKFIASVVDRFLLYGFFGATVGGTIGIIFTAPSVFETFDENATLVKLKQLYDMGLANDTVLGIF
T4 sequence (Q93329 26-531, further chain): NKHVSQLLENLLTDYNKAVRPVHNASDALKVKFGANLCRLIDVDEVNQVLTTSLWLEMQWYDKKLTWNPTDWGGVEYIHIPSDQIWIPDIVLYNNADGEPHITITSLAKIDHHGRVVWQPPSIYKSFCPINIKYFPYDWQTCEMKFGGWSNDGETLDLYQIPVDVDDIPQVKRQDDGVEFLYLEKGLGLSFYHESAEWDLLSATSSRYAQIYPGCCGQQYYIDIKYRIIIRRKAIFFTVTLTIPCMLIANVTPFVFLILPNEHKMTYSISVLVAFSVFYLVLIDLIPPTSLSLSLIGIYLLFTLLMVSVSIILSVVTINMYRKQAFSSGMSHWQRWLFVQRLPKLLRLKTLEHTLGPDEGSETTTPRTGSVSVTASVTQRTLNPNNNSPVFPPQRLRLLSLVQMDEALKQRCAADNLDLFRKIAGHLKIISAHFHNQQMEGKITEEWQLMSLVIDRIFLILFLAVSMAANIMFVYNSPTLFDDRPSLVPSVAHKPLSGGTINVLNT
T1 sequence (A0A2I6TEK4 19-527): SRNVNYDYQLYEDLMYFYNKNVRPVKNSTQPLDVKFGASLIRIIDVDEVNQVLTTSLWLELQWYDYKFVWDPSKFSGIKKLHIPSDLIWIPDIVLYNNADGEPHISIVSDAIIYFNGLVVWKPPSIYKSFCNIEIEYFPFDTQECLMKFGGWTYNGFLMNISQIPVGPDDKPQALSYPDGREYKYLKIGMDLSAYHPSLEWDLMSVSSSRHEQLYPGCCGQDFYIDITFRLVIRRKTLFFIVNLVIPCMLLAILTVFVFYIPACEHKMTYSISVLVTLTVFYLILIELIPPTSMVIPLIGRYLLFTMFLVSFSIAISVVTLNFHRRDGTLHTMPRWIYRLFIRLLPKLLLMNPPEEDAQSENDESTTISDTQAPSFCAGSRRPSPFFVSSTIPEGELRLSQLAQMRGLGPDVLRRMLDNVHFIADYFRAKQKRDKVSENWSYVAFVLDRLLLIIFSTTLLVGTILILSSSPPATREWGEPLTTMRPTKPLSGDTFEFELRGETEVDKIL
T1 sequence (Q23022 17-511, further chain): as the sequence (Q23022 17-511) above
T1 sequence (Q9N587 24-502, further chain): as the sequence (Q9N587 24-502, further chain) above
T1 sequence (P48181 27-493, further chain): as the sequence (P48181 27-493, further chain) above
T1 sequence (Q27218 32-507, further chain): as the sequence (Q27218 32-507, further chain) above
T6 sequence (D6MYF4 22-504): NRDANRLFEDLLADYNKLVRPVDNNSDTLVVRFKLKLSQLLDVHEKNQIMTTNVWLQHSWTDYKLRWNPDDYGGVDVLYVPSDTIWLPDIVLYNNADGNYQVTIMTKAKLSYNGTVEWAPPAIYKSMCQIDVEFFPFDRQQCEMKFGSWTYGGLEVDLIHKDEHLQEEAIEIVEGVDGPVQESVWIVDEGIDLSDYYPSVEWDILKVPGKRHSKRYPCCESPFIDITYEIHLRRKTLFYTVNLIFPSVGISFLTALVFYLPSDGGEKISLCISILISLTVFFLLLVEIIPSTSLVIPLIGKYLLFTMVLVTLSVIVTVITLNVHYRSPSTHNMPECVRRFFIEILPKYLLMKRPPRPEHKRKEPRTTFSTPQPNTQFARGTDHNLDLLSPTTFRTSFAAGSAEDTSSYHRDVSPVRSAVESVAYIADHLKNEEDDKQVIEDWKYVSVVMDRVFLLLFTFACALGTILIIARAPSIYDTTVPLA
T6 sequence (Q23022 17-511, further chain): as the sequence (Q23022 17-511) above
T6 sequence (P48181 27-493, further chain): as the sequence (P48181 27-493, further chain) above
T6 sequence (Q27218 32-507, further chain): as the sequence (Q27218 32-507, further chain) above
T6 sequence (Q93329 26-531, further chain): as the sequence (Q93329 26-531, further chain) above
T3 sequence (A0A2I6TEN1 25-521): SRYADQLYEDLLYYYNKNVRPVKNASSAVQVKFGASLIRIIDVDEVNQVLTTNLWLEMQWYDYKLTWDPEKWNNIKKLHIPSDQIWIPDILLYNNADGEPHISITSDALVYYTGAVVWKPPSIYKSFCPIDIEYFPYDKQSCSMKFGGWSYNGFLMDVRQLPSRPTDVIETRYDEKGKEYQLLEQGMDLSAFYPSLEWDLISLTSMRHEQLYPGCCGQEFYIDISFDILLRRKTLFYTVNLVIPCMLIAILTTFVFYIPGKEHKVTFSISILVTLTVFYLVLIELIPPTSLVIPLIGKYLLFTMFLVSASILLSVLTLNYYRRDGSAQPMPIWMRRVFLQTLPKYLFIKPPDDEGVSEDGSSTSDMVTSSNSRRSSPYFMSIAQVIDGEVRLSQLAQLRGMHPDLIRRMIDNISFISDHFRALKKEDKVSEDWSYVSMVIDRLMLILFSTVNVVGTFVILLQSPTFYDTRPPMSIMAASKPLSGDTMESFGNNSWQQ
T3 sequence (Q23022 17-511, further chain): as the sequence (Q23022 17-511) above
T3 sequence (Q9N587 24-502, further chain): as the sequence (Q9N587 24-502, further chain) above
T3 sequence (P48181 27-493, further chain): as the sequence (P48181 27-493, further chain) above
T3 sequence (Q27218 32-507, further chain): as the sequence (Q27218 32-507, further chain) above

In the case of `c1ccc([C@H]2CN3CCSC3=N2)cc1` [levamisole], the EC50 in experiment [1] stood at 10.1 ± 1.1 µM; in [3], 2.7 ± 1.4 µM; in [4] it was 5.8 ± 1.2 µM; in [5], 6.4 ± 1.2 µM; in experiment [6] it was 11.7 ± 1.3 µM; in experiment [7] it was 12.1 ± 1.2 µM. Further, in experiment [9], the half-maximal effective concentration (EC50) came to 13.5 ± 1.5 µM. Further, the “Lev Imax” value in [2] is given as 51.1 ±4.5%; in experiment [8], 112.4 ±19.0%; in [10] it was 109.5 ±20.7%; in [11], 33.9 ±13.9%; in [12], 51.6 ±7.0%; in [13], 49.1±10.2%. For the same compound, the “Lev Imax” value in [14] amounted to 55.9 ±9.4%.
